In ChEMBL document CHEMBL3639344, “Fused heterocyclic compounds as orexin receptor modulators” (2014):

Assays:
Orexin receptor type 2 = target: T1, Orexin receptor type 2 (Homo sapiens, UniProt O43614); assay: (§1) Radioligand Binding: HEK293 stably expressing human orexin-2 receptor (Genebank accession number NM 001526) were grown to confluency in DMEM/F12 (Gibco, Cat #11039), in DMEM, 10% FBS, 1× Pen/Strep, 1× NaPyruvate, 1×HEPES, 600 ug/ml G418 media on 150 cm2 tissue culture plates, washed with 5 mM EDTA in PBS (HyClone Dulbecco's Phosphate Buffered Saline 1× with Calcium and Magnesium, Cat #SH30264.01, hereafter referred to simply as PBS) and scraped into 50 ml tubes. After centrifugation (2K xG, 10 min at 4° C.), the supernatant was aspirated and the pellets frozen and stored at −80° C. Cells were resuspended in PBS in the presence of 1 tablet of protease inhibitor cocktail (Roche, Cat. #11836145001) per 50 mL.
T1 sequence (O43614 whole entry): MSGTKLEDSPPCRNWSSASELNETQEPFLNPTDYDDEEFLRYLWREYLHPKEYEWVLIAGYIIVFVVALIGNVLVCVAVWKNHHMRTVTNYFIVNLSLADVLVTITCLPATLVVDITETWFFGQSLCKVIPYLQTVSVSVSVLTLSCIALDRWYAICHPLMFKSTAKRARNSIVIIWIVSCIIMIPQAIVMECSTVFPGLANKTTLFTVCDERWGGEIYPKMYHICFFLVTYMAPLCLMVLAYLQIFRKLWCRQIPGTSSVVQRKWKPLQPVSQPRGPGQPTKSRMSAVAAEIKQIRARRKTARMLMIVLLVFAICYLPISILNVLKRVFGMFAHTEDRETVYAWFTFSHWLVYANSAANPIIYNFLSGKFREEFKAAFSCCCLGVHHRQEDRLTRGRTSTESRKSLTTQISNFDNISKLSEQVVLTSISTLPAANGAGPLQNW

[1] = target: T2, Orexin/Hypocretin receptor type 1 (Homo sapiens, UniProt O43613); assay: as §1, with “Chinese ovary cells (CHO)” for “HEK293”, “orexin 1” for “orexin-2”, “#11039),” for “#11039), in DMEM,”, “Pen/Strep,” for “Pen/Strep, 1× NaPyruvate, 1×HEPES,”, “μg/mL” for “ug/ml”, “Phoshpate” for “Phosphate”; type: cell-based
T2 sequence (O43613 whole entry): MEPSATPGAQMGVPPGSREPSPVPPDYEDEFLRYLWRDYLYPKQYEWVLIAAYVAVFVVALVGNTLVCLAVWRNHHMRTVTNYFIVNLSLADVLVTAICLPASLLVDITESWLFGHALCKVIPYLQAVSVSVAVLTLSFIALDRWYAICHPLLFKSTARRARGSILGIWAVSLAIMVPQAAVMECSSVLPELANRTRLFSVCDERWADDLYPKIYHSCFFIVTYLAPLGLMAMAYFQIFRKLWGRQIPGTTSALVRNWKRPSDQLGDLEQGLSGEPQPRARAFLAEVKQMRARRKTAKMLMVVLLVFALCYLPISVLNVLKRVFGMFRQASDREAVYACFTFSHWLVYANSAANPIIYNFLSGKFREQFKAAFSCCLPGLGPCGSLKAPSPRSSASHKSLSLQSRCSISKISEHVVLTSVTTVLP

Ki (Orexin receptor type 2): 0.059 µM
Ki [1]: 1.59 µM
SMILES: Cc1cc(C)nc(N2C[C@@H]3CCN(C(=O)c4ccccc4-c4nc(C)no4)C[C@@H]32)n1
